IC50 data for ten compounds are collected here from patent US20240216357A1 (SICHUAN HUIYU PHARMACEUTICAL CO., LTD., priority 2021, published 2024).

In one series the target is LSD1 (Homo sapiens (Human), UniProt O60341). As to the kind of experiment: LSD1 enzyme activity detection (HTRF). The format is biochemical. To be noted: read-out: Inhibition of enzymatic activity of LSD1 IC50. (In general: TR-FRET usually uses a lanthanide donor and a delayed reading to cut background.)
A further series concerns NCI-H1417 cells. As to the kind of experiment: In vitro cell proliferation detection (CellTiter-Glo, 7 days). The format is cell-based. To be noted: Homo sapiens, 168 h; NCI-H1417 cells, 7 days, CellTiter-Glo; read-out: NCI-H1417 proliferation inhibition IC50. A general note: In ATP-based viability assays light output follows the ATP content of the culture.
Series [1] deals with voltage-gated potassium ion channel hERG (Homo sapiens (Human), UniProt Q12809). As to the kind of experiment: hERG inhibition test (manual patch-clamp).
[2] abbreviates: read-out: hERG IC50, manual patch-clamp.

Counter-ions that a name gives are not always drawn. Like-named read-outs stand apart in the source and are kept apart here. Where only a bound is given, the exact number is not on record here.

Sequence of voltage-gated potassium ion channel hERG (Q12809 whole entry): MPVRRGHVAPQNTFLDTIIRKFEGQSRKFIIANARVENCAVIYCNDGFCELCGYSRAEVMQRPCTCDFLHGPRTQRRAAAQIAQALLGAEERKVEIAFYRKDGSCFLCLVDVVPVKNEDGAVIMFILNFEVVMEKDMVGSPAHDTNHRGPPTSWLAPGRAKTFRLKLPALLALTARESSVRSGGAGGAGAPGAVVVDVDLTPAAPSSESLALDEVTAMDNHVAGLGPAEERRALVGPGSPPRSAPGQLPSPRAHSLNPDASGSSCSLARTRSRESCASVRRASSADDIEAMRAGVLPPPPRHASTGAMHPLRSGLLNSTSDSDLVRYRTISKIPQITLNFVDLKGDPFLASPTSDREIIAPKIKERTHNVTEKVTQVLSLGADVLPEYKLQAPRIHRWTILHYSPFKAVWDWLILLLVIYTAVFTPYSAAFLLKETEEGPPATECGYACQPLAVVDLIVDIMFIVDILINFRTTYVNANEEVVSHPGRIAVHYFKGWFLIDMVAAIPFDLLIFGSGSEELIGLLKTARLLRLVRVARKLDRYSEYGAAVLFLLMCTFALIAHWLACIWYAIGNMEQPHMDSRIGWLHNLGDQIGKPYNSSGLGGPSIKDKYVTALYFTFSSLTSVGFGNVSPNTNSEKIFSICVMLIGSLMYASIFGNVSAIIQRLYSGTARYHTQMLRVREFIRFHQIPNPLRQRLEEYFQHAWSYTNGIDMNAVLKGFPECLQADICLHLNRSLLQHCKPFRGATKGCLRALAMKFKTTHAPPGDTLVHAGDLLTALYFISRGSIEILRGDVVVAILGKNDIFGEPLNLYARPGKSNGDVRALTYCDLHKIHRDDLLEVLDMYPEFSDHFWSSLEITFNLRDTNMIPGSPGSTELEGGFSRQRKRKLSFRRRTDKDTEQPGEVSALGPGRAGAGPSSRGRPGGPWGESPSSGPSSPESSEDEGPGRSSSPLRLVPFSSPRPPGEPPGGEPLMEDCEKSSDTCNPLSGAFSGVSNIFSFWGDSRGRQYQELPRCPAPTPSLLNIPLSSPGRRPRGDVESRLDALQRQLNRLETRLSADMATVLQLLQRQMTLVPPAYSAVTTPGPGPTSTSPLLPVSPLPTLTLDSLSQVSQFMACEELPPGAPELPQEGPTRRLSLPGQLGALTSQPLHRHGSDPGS

On to `COc1ccc(-c2c(-c3ccc(C#N)c(F)c3)nc(N3CCC(N)CC3)n3ccnc23)cc1C#N` [Example 135, 4-(5-(4-aminopiperidin-1-yl)-8-(3-cyano-4-methoxyphenyl)imidazolo[1,2-c]pyrimidin-7-yl)-2-fluorobenzonitrile], for which the IC50 came out at 9.6 ± 2.7 nM at LSD1 (HTRF, H3K4me1 substrate); 8.19 nM in the series with NCI-H1417 cells; 23400 nM in series [1] (setting [2]).

As for `CC(C)(O)Cc1ccc(-c2c(-c3ccc(C#N)c(F)c3)nc(N3CCC(N)CC3)n3ccnc23)cc1F` [Example 134, 4-(5-(4-aminopiperidin-1-yl)-8-(3-fluoro-4-(2-hydroxy-2-methylpropyl)phenyl)imidazolo [1,2-c]pyrimidin-7-yl)-2-fluorobenzonitrile], the IC50 at LSD1 (HTRF, H3K4me1 substrate) turned out to be 6.1 ± 1.9 nM; in the series with NCI-H1417 cells it was 7.25 nM; in series [1] (setting [2]), 18400 nM.

For `COc1cc(F)c(-c2c(O)cc(N3CCC(N)CC3)nc2-c2ccc(C#N)c(F)c2)cc1F` [Example 41, 4-(6-(4-aminopiperidin-1-yl)-3-(2,5-difluoro-4-methoxyphenyl)-4-hydroxypyridin-2-yl)-2-fluorobenzonitrile hydrochloride], the IC50 at LSD1 (HTRF, H3K4me1 substrate) is 22.1 nM; with NCI-H1417 cells, 7.93 nM; in series [1] (setting [2]), more than 30000 nM.

For the compound `Cc1noc2cc(-c3c(O)cc(N4CCC(N)CC4)nc3-c3ccc(C#N)c(F)c3)c(F)cc12` [Example 26, 4-(6-(4-aminopiperidin-1-yl)-3-(5-fluoro-3-methylbenzo[d]isoxazol-6-yl)-4-hydroxypyridin-2-yl)-2-fluorobenzonitrile], the IC50 was 3.67 ± 0.72 nM on LSD1 (HTRF, H3K4me1 substrate); 7.45 nM with NCI-H1417 cells; more than 30000 nM in series [1] (setting [2]).

In the case of `N#Cc1ccc(-c2nc(N3CCC(N)CC3)n3ccnc3c2-c2ccc(F)c(O)c2)cc1F` [Example 137, 4-(5-(4-aminopiperidin-1-yl)-8-(4-fluoro-3-hydroxyphenyl)imidazolo[1,2-c]pyrimidin-7-yl]-2-fluorobenzonitrile], the IC50 on LSD1 (HTRF, H3K4me1 substrate) was 0.07 ± 0.05 nM; with NCI-H1417 cells it was 0.553 nM; in series [1] (setting [2]), more than 10000 nM.

In the case of `COc1cc(N2CCC(N)CC2)nc(-c2ccc(C#N)c(F)c2)c1-c1cc2onc(C)c2cc1F` [Example 90, 4-(6-(4-aminopiperidin-1-yl)-3-(5-fluoro-3-methylbenzo[d]isoxazol-6-yl)-4-methoxypyridin-2-yl)-2-fluorobenzonitrile], the IC50 on LSD1 (HTRF, H3K4me1 substrate) came out at 7.48 nM; in the series with NCI-H1417 cells, 5.34 nM; in series [1] (setting [2]), 4620 nM.

Regarding `COc1ccc(-c2c(O)cc(N3CCC(C)(N)CC3)nc2-c2ccc(C#N)c(F)c2)cc1F` [Example 50], the IC50 on LSD1 (HTRF, H3K4me1 substrate) is 7 ± 2.1 nM; in the series with NCI-H1417 cells, 33.2 nM; in series [1] (setting [2]), 17600 nM.

As for `COc1ccc(-c2c(-c3ccc(C#N)c(F)c3)nc(N3CCC(N)CC3)n3ccnc23)cc1F` [Example 117, 4-(5-(4-aminopiperidin-1-yl)-8-(3-fluoro-4-methoxyphenyl)imidazolo[1,2-c]pyrimidin-7-yl]-2-fl uorobenzonitrile hydrochloride], the values for the IC50 (at LSD1; in the series with NCI-H1417 cells; in series [1] (setting [2])) were 0.46 ± 0.02 nM, 3.76 nM and 7190 nM, respectively.

`O=C(NC1CCOCC1)c1cc(CN[C@@H]2C[C@H]2c2ccc(F)cc2)nc(-c2ccc(-n3cccn3)cc2)n1` [Example 233]: the IC50 on LSD1 (HTRF, H3K4me1 substrate) is 7.2 ± 2.3 nM; with NCI-H1417 cells, 9.36 nM; in series [1] (setting [2]), 4470 nM.

`COc1ccc(-c2c(OC(C)C)cc(N3CCC(N)CC3)nc2-c2ccc(C#N)c(F)c2)cc1O` [Example 104, 4-(6-(4-aminopiperidin-1-yl)-3-(3-hydroxy-4-methoxyphenyl)-4-isopropoxypyridin-2-yl)-2-fluor obenzonitrile]: the IC50 came out at 0.7 ± 0.02 nM on LSD1 (HTRF, H3K4me1 substrate); 1.76 nM in the series with NCI-H1417 cells; 6700 nM in series [1].
